Data set [1] has as its target Acetylcholinesterase (Electrophorus electricus, UniProt O42275). Kind of data set: Inhibition of electric eel AChE preincubated for 15 mins followed by addition of acetylcholine iodide as substrate by Ellman's assay. For orientation: DTNB colorimetry detects thiols as they appear.
Data set [2] deals with SH-SY5Y. The data set can be described thus: Cytotoxicity against human SH-SY5Y cells assessed as cell viability at 1.5 to 5 uM after 25 hrs by MTT assay. In kind it is cell-based. Background: Formazan colour is commonly taken as a measure of viable cells.
A short description of data set [3]: Antioxidant activity assessed as DPPH radical scavenging activity at 1 mM after 30 mins. The note with it: 0.5 h, 1000 µM. In kind it is physicochemical. In general terms: Loss of DPPH colour is used to gauge radical scavenging.
Data set [4] in a line: Antioxidant activity assessed as DPPH radical scavenging activity after 30 mins. In kind it is physicochemical.
Data set [5] concerns SH-SY5Y. The data set can be described thus: Cytotoxicity against human SH-SY5Y cells assessed as cell viability at 2.5 uM after 25 hrs by MTT assay relative to control. In kind it is cell-based.
The subject of data set [6] is SH-SY5Y. The data set can be described thus: Neuroprotective activity against human SH-SY5Y cells assessed as reduction of H2O2-induced oxidative stress at 5 uM preincubated with compound for 1 hr followed by H2O2 addition for 24 hrs by MTT reduction assay. In kind it is functional, cell-based.
Data set [7] deals with SH-SY5Y. Kind of data set: Cytotoxicity against human SH-SY5Y cells assessed as cell viability at 1.5 uM after 25 hrs by MTT assay relative to control. In kind it is cell-based.
For data set [8], the target named is Amyloid-beta precursor protein (Homo sapiens) (UniProt P05067). The data set can be described thus: Inhibition of Amyloid beta (1 to 42) (unknown origin) self-induced aggregation at 80 uM for 24 hrs by Thioflavin T-based fluorometric assay.
Sequence of Amyloid-beta precursor protein (Homo sapiens) (P05067 whole entry): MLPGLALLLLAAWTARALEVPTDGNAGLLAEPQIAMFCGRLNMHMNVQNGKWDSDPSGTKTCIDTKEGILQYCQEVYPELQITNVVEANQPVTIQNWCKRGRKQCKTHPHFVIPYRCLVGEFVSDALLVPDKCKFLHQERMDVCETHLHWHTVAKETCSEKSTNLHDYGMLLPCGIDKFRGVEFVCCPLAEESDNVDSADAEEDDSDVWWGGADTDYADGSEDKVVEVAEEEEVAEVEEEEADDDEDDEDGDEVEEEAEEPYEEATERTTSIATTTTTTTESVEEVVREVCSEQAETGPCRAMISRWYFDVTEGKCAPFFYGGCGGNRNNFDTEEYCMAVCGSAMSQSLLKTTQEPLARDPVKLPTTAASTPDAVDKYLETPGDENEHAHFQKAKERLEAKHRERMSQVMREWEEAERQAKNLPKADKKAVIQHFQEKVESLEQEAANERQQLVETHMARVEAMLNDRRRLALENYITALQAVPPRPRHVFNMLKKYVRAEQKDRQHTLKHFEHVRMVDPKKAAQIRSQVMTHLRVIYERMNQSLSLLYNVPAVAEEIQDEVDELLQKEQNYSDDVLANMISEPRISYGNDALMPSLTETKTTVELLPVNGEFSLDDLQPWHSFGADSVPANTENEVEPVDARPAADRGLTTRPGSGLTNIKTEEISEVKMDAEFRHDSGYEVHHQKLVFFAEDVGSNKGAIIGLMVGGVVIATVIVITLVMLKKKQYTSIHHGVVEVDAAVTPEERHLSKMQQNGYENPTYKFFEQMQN
The test system of data set [9] is SH-SY5Y. Kind of data set: Neuroprotective activity against human SH-SY5Y cells assessed as reduction of Amyloid beta 42-induced cytotoxicity at 2.5 uM preincubated with compound for 1 hr followed by Amyloid beta 42 peptide addition for 24 hrs by MTT reduction assay. In kind it is functional, cell-based.
Data set [10] is described as follows: Cytotoxicity against ovarian cancer cells (unknown origin). In kind it is cell-based. The note with it: Cancer cell lines.
In data set [11] the test system is SH-SY5Y. The data set can be described thus: Neuroprotective activity against human SH-SY5Y cells assessed as reduction of H2O2-induced oxidative stress at 2.5 uM preincubated with compound for 1 hr followed by H2O2 addition for 24 hrs by MTT reduction assay. In kind it is functional, cell-based.

The results in this text go back to ChEMBL document CHEMBL3769323, “Design, synthesis and bioevaluation of tacrine hybrids with cinnamate and cinnamylidene acetate derivatives as potential anti-Alzheimer drugs” (Medchemcomm, 2015).

Active and inactive are the calls of the source. The rule behind the calls is not given here.

Sequence of Acetylcholinesterase (O42275 whole entry): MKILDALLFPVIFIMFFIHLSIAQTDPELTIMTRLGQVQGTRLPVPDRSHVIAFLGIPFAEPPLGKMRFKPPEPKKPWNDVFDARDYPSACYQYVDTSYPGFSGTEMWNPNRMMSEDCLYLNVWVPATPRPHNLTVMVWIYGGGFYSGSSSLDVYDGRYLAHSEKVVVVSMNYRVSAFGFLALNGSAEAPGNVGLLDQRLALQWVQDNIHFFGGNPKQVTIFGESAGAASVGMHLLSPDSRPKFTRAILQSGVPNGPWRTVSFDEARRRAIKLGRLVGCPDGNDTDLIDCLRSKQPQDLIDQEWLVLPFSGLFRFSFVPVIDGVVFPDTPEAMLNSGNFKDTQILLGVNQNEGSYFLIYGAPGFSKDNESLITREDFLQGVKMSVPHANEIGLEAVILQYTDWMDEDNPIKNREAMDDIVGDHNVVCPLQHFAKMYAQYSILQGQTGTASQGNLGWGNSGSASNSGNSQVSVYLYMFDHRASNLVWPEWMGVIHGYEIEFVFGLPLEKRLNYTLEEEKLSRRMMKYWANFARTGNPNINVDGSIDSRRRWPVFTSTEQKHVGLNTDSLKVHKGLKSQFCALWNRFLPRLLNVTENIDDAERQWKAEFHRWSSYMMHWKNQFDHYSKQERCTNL

One may read the IC50 as the concentration that inhibits the measured activity by half. High values mean lower potency, low ones higher potency. Consider `O=C(/C=C/c1ccc2c(c1)OCO2)NCCCCNc1c2c(nc3ccccc13)CCCC2`, for which the IC50 in [1] amounted to 730 nM. In addition, the figures for the Activity entry in data set [2] and in data set [3] were “Toxic” and 18.6%, respectively.
What is called EC50 is the concentration at which the effect is half-maximal. In turn, `O=C(/C=C/C=C/c1ccc(O)c(O)c1)NCCCNc1c2c(nc3ccccc13)CCCC2` showed an IC50 in [1] of 480 nM. For the same molecule, in [2], the Activity result was “Non-toxic”. In addition, the EC50 in [4] was determined as 9100 nM.
Take `O=C(/C=C/c1ccccc1)NCCCNc1c2c(nc3ccccc13)CCCC2`: the Activity result in data set [5] is “Toxic”; in [2] it was “Toxic”; in [3], 16.3%. The IC50 in data set [1] was determined as 380 nM.
For `O=C(/C=C/C=C/c1ccc(O)c(O)c1)NCCNc1c2c(nc3ccccc13)CCCC2`, the result in [6] was Active. The molecule further displayed an IC50 in data set [1] of 1090 nM. Also, the Activity result in data set [2] is “Non-toxic”. In addition, the EC50 in data set [4] stood at 9500 nM.
In the same order, the values of `O=C(/C=C/c1ccc(O)c(O)c1)NCCCNc1c2c(nc3ccccc13)CCCC2` are “Active”, 980 nM, “Toxic” and 11300 nM.
As for `O=C(/C=C/C=C/c1ccc2c(c1)OCO2)NCCNc1c2c(nc3ccccc13)CCCC2`, in data set [1], the IC50 came to 300 nM. The values for the Activity result in [2], in [3] and in data set [7] were “Toxic”, 26.2% and “Toxic”, respectively.
Molecule `O=C(/C=C/c1ccc(O)c(O)c1)NCCNc1c2c(nc3ccccc13)CCCC2` had an IC50 in [1] of 840 nM. In addition, the Activity result in data set [2] is given as “Toxic”. For the same molecule, the EC50 in data set [4] stood at 12300 nM.
For `COc1ccc(/C=C/C(=O)NCCCCNc2c3c(nc4ccccc24)CCCC3)cc1OC`, in data set [1], the IC50 was 390 nM. Besides, the Activity in [3] came out at 16.1%.
For orientation: inhibition means the percentage by which the read-out fell short of the control. In data set [8], `O=C(/C=C/c1ccc2c(c1)OCO2)NCCNc1c2c(nc3ccccc13)CCCC2` came in with an inhibition of 30.9%. Moreover, inhibition in data set [1] was half-maximal at 180 nM (IC50). The Activity result in data set [2] was “Toxic”; in data set [3], 12.2%.
On to `O=C(/C=C/c1ccccc1)NCCCCNc1c2c(nc3ccccc13)CCCC2`, for which, in data set [9], the outcome was Active. In addition, in [1], the IC50 stood at 850 nM. The Activity in data set [3] was found to be 22.5%.
As to `O=C(/C=C/C=C/c1ccccc1)NCCNc1c2c(nc3ccccc13)CCCC2`, in data set [1], the half-maximal inhibitory concentration (IC50) worked out at 320 nM. Moreover, the results for the Activity entry in data set [2], in data set [3] and in data set [7] were “Toxic”, 15.6% and “Toxic”, respectively.
For `COc1ccc(/C=C/C(=O)NCCNc2c3c(nc4ccccc24)CCCC3)cc1OC`, the inhibition in data set [8] turned out to be 19.6%. Also, the figures for the IC50 in data set [10] and in [1] were 10400 nM and 90 nM, respectively. Also, the result in data set [9] and in [11] was Active. In addition, in [3], the Activity worked out at 8.8%.
Turning to `O=C(/C=C/C=C/c1ccccc1)NCCCCNc1c2c(nc3ccccc13)CCCC2`, the IC50 in data set [1] stood at 620 nM. The results for the Activity in data set [3] and in data set [7] were 23% and “Toxic”, respectively.
`O=C(/C=C/C=C/c1ccc2c(c1)OCO2)NCCCNc1c2c(nc3ccccc13)CCCC2` registered an inhibition in data set [8] of 72.2%. In addition, the half-maximal inhibitory concentration (IC50) in data set [10] turned out to be 2500 nM; in data set [1], 130 nM. Also, the figures for the Activity entry in data set [2] and in [3] were “Toxic” and 20.8%, respectively.
`COc1ccc(/C=C/C(=O)NCCCNc2c3c(nc4ccccc24)CCCC3)cc1OC` showed an inhibition in [8] of 56.5%. Further, the IC50 was determined as 19500 nM in [10] and 90 nM in [1]. Also, the outcome in [11] was Active. In data set [3], the Activity is listed as 16.8%.
In data set [1], `O=C(/C=C/C=C/c1ccccc1)NCCCNc1c2c(nc3ccccc13)CCCC2` had an IC50 of 290 nM. In addition, the Activity result is reported as “Toxic” in [2] and 16.9% in data set [3].
Taken in the same sequence, the figures for `O=C(/C=C/c1ccccc1)NCCNc1c2c(nc3ccccc13)CCCC2` were 770 nM, “Toxic” and 7.9%.
Molecule `O=C(/C=C/c1ccc2c(c1)OCO2)NCCCNc1c2c(nc3ccccc13)CCCC2` had an inhibition in data set [8] of 8.27%. Also, the IC50 came to 5820 nM in data set [10] and 130 nM in data set [1]. Besides, the Activity result in [2] is on record as “Toxic”; in [3], 15.4%.
